Laboratory results as given in publication PMC11350675, “Identifying Cell-Penetrating Peptides for Effectively Delivering Antimicrobial Molecules into Streptococcus suis” (Antibiotics, 2024).
≈ marks a conversion by molar mass, not a printed value. Read-outs that look alike come from different tables or passages of the source. Non-standard residues stand in square brackets, D forms with d. Residues, ends and D or L forms follow the SMILES beside them. Ahx = NCCCCCC(=O)O; βAla = NCCC(=O)O

Experiments:
[1] = test system: S. suis serotype 2 strain SC070731; assay type: cell-based, Streptococcus suis
Experimental: The broth microdilution method was employed to determine the MIC values, following a previous study and a recently published protocol with a few modifications. In brief, an overnight S. suis serotype 2 strain SC070731 culture was diluted 100-fold in fresh THB and grown to an OD600nm of 0.6. Subsequently, the bacterial suspension was further diluted 2000-fold in fresh Mueller–Hinton broth (MHB) to a final concentration of approximately 1 × 10^5 CFU/mL. Then, 180 µL of the bacterial solution was transferred into a 96-well plate. Immediately, 20 µL of a 10× peptides, PNAs, or CPP-PNA conjugates working solution was added. As a negative control, an equivalent volume of water was added instead. The plate was then incubated at 37 °C with 5% CO2 for 18 h, and the growth was periodically monitored by measuring the OD595nm every hour using a BioTek ELx800 plate reader. The MIC value was determined as the lowest concentration inhibiting visible growth in the wells (OD595nm < 0.1).

[2] = test system: S. suis serotype 2 strain SC070731 cells; assay: Cellular uptake of FITC-labeled CPPs by flow cytometry; assay type: cell-based, Streptococcus suis; conditions: 10 µM FITC-labeled CPP or FITC molecule, 1 h, 37 °C, PBS; flow cytometry, 50,000 events, 488 nm laser
Experimental: S. suis serotype 2 strain SC070731 was streaked onto THA plates and incubated at 37 °C with 5% CO2 for 12 h. A bacterial colony was picked and inoculated overnight in 2 mL of THB at 37 °C. The overnight culture was then diluted 100-fold in fresh THB and grown to an OD600nm of 0.6 (approximately 3 × 10^8 CFU/mL). The obtained culture was washed twice with PBS and resuspended in PBS. Further, 900 µL of the bacterial solution was transferred into a 2 mL tube. Immediately, 100 µL of a 10× FITC-labeled CPPs working solution was added to a final concentration of 10 µM. Controls were prepared using an equivalent volume of water or a 10× FITC molecule solution. The reaction tubes were incubated for one hour at 37 °C and 10 rpm rotation in the dark. […] The fluorescence emitted by the 640 nm laser was used to analyze the cell membrane stained with Alexa Fluor 633-WGA. In contrast, the fluorescence emitted by the 488 nm laser was used to analyze the distribution of FITC-labeled CPPs in bacterial cells. […]
As mentioned, the bacterial cells were treated with FITC-labeled CPPs and fixed with 4% paraformaldehyde. […] Bacterial cells in suspension were analyzed at a 200–300 events/s flow rate, and 50,000 events were recorded for analysis. […] The mean fluorescence intensity of FITC was analyzed using FlowJo^TM v10 software (BD Biosciences). […]

[3] = S. suis serotype 2 strain SC070731, broth microdilution in MHB, approx. 1 × 10^5 CFU/mL, 37 °C, 5% CO2, 18 h, lowest concentration inhibiting visible growth (OD595nm < 0.1)

Row | Molecule | MIC [1, 3] | other results
1 | N=C(N)NCCC[C@H](NC(=O)CCCCCNC(=O)[C@H](CCCNC(=N)N)NC(=O)[C@H](CCCNC(=N)N)NC(=O)CCCCCNC(=O)[C@H](CCCNC(=N)N)NC(=O)[C@H](CCCNC(=N)N)NC(=O)CCCCCNC(=O)[C@H](CCCNC(=N)N)NC(=O)[C@H](CCCNC(=N)N)NC(=O)CCCCCNC(=O)[C@@H](N)CCCNC(=N)N)C(=O)NCCCCCC(=O)NCCC(N)=O [(RXR)4XB] (H-R[Ahx]RR[Ahx]RR[Ahx]RR[Ahx]R[Ahx][βAla]-NH2) | – | MIC ([1]; 18 h): 4 µM (≈ 7.61 µg/mL)
2 | O=C1OC2(c3ccc(O)cc3Oc3cc(O)ccc32)c2ccc(N=C=S)cc21 [FITC molecule] | – | cells clustered in quadrant 4 (FITC-positive), share of total cells [2]: 64.80%
3 | N=C(N)NCCC[C@H](NC(=O)CN)C(=O)N[C@@H](CCCCN)C(=O)N[C@@H](CCCCN)C(=O)N[C@@H](CCCNC(=N)N)C(=O)N[C@@H](CCCNC(=N)N)C(=O)N[C@@H](CCC(N)=O)C(=O)N[C@@H](CCCNC(=N)N)C(=O)N[C@@H](CCCNC(=N)N)C(=O)N[C@@H](CCCNC(=N)N)C(=O)N[C@@H](Cc1ccc(O)cc1)C(=O)N[C@@H](CCCCN)C(N)=O [HIV-1 TAT] | >128 µM | –
4 | Free PNA: gyrA-specific antisense peptide nucleic acid, ttgcattatatg, without carrier peptide (TTGCATTATATG; all peptide nucleic acid (PNA); Unconjugated PNA, no carrier peptide) | >32 µM | –
